According to US4254256A, “Amino sugar compound” (Toyo Jozo company, Ltd., priority 1977, dated 1981):

Columns and labels:
[1] = Solubility in solvents; type: physicochemical
[2] = system: amylase; assay: Amylase test in vitro (amylase inhibitor unit); type: biochemical; conditions: 1 AIU = amount of inhibitor for about 50% inhibition; starch substrate, pH 6.9, 35° C.
Description: The amylase activity of the novel amino sugar compound of the present invention was measured by the following method.
Amylase inhibitor unit (1 AIU) is defined as the amount of inhibitor required to control the amylase unit by about 50%. The amylase unit (AU) is the value of enzyme to divide 1μ equivalent of glucoside bond in starch for 1 minute under the following test conditions. The μ equivalent of this divided bond is determined as reduced μ equivalent of sugar formed by Kurie's method which uses dinitrosalicylic acid. Standard curve using maltose is given as μ equivalent of maltose equivalent. A testing solution (0-20 μl) in 0.4 ml of a solution (pH 6.9) containing 0.001 mol of CaCl2, 0-10 μg of the inhibitor and 0.02 mol of sodium glycerophosphate is added to 0.1 ml of an amylase solution (20 to 22 AU/ml). This mixture is equilibrated in a water bath of 35° C. for about 10-20 minutes. Then, this is cultured at 35° C. for 5 minutes together with 0.5 ml of a 1% starch solution (soluble starch No. 1,252 from Marck, Darmstadt) preheated to 35° C. and thereafter 1 ml of dinitrosalicylic acid reagent (P. Bernfeld, Colowick-Kaplan, Meth. Enzymol., 1, 149) is added thereto. For developing color, the batch is heated in a boiling water bath for 5 minutes and then cooled and 10 ml of distilled water is added thereto. Absorbance of 540 nm is measured in comparison with blanks prepared in the same manner without using amylase. For evaluation, amylase activity which is still effective after addition of inhibitor is read from previously recorded amylase standard curve and inhibiting rate (%) of the amylase used is calculated from said amylase activity. The inhibiting rate is plotted as function of the quotient: [formula] Inhibiting point of 50% is read from this curve and is converted to AIU/mg of the inhibitor.

[3] = acetone, ethyl acetate, chloroform
[4] = water, methanol, dimethylformamide, dimethylsulfoxide, hot ethanol

Structure (SMILES)	Solubility in solvents [1, 3]	Solubility in solvents [1, 4]	Amylase inhibitor unit [2]
OCC1=CC(NC2C(CO)OC(O[C@H]3[C@H](O)[C@@H](O)C(O)O[C@@H]3CO)C(O)C2O)C(O)C(O)C1O (some centres unmarked) [[I] (wherein n=1 and m=0)]	insoluble	soluble	3.4×10^2 AIU/mg
OCC1=CC(NC2C(CO)OC(O[C@H]3[C@H](O)[C@@H](O)C(O[C@H]4[C@H](O)[C@@H](O)C(O)O[C@@H]4CO)O[C@@H]3CO)C(O)C2O)C(O)C(O)C1O (some centres unmarked) [[I] (wherein n=2 and m=0)]	insoluble	soluble	3.6×10^2 AIU/mg
OCC1=CC(NC2C(CO)OC(O[C@H]3[C@H](O)[C@@H](O)C(O[C@H]4[C@H](O)[C@@H](O)C(O)O[C@@H]4CO)O[C@@H]3CO)C(O)C2O)C(O)C(O)C1OC1O[C@H](CO)[C@@H](O)[C@H](O)[C@H]1O (some centres unmarked) [[I] (wherein n=2, m=1)]			1.2×10^3 AIU/mg
OCC1=CC(NC2C(CO)OC(O[C@H]3[C@H](O)[C@@H](O)C(O[C@H]4[C@H](O)[C@@H](O)C(O[C@H]5[C@H](O)[C@@H](O)C(O)O[C@@H]5CO)O[C@@H]4CO)O[C@@H]3CO)C(O)C2O)C(O)C(O)C1O (some centres unmarked) [[I] (wherein n=3, m=0)]			1.4×10^3 AIU/mg
